# According to US20130283404A1, “EPIGENETICS IN AUTOIMMUNITY” (The Regents of the University of Michigan, priority 2012, published 2013):
# What was measured:
# [1] = biological target: T1, PKCδ (Homo sapiens, UniProt Q05655); assay: PKCδ phosphorylation (p-T505, p-Y311) by immunoblot in PMA-stimulated CD4+ T cells; type: cell-based
# T1 construct: Following stimulation, whole cell lysates were obtained; endogenous in cells; host or cells: primary CD4+ T cells from healthy donors or lupus patients
# T1 sequence (Q05655 whole entry): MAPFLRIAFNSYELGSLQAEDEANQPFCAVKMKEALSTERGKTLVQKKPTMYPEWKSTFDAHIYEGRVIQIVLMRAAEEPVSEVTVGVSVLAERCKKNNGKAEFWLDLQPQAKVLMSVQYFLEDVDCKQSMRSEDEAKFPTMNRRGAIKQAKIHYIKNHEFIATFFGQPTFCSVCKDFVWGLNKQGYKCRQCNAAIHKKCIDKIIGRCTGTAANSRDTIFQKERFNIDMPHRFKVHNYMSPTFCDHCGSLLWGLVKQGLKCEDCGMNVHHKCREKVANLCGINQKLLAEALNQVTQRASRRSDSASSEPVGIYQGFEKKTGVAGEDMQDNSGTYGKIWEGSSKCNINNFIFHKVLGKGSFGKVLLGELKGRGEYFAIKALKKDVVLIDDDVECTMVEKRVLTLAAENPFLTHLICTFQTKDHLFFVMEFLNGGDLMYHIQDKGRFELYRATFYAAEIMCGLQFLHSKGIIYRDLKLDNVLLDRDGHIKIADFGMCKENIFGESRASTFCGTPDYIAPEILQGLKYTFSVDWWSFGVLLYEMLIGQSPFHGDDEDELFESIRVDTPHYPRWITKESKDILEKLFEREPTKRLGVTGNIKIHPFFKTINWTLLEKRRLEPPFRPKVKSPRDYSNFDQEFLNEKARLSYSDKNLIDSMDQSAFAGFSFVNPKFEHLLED
# Description: Peripheral blood mononuclear cells were isolated from healthy donors or SLE patients by Ficoll-Hypaque density gradient centrifugation. CD4+ T cells were then purified by negative selection using magnetic beads (CD4+ T cell isolation kit; Miltenyi Biotec, Auburn, Calif.) as previously reported (Gorelik, 2007; herein incorporated by reference in its entirety).
# (§1) CD4+ T cells were suspended in RPMI 1640 supplemented with 10% fetal calf serum, 2 mM glutamine and penicillin/streptomycin then left unstimulated or stimulated with 50 ng/ml PMA for 15 min at 37° C. Treatment with peroxynitrite was performed at the concentrations and time specified in each experiment and before PMA stimulation. Following stimulation, whole cell lysates were obtained and protein content quantified using the BCA Protein Assay (Pierce, Rockford, Ill.).
# (§2) Whole cell protein was fractionated by SDS-PAGE, transferred to nitrocellulose membranes (Schleicher and Schuell, Keene, N.H.) then stained with Ponceau S (Sigma) to verify equal protein loading between lanes. After incubation with the kinase specific antibody then the secondary antibody, protein bands were visualized by chemiluminescence (Amersham, Piscataway, N.J.). The bands on X-ray films were scanned and analyzed with ImageQuant 5.2 software (Amersham) for quantification. Where indicated, blots were stripped and re-probed with the corresponding antibody. Values were normalized to β-actin or the corresponding kinase as indicated.
# Experiments were performed during development of embodiments of the present invention to determine if ONOO^− causes the PKCδ T^505 phosphorylation defect observed in lupus T cells. CD4+ T cells from healthy subjects were treated with increasing concentrations of ONOO^− then stimulated with PMA.
# The phosphorylation of Y^311 in the PKCδ molecule was also examined, because this amino acid is phosphorylated in cells undergoing oxidative stress (Steinberg, 2004; Kikkawa, 2002; herein incorporated by reference in their entireties). […] It is important to note that p-Y^311 is almost undetectable in resting CD4+ T cells (not shown) similar to p-T^505. […] While PMA promotes phosphorylation on T^505, Y^311 is almost insensitive. In contrast, ONOO^− increases Y311 phosphorylation with a concomitant decrease in p-T^505.
# [2] = tested on: PKCα; assay: PKCα activation loop phosphorylation by immunoblot in PMA-stimulated CD4+ T cells; type: cell-based, human; conditions: CD4+ T cells from healthy subjects, increasing ONOO− then PMA
# [3] = biological target: T2, PKCθ (Homo sapiens, UniProt Q04759); assay: PKCθ activation loop phosphorylation by immunoblot in PMA-stimulated CD4+ T cells; type: cell-based; conditions: CD4+ T cells from healthy subjects, increasing ONOO− then PMA
# T2 construct: Following stimulation, whole cell lysates were obtained; endogenous in cells; host or cells: primary CD4+ T cells from healthy donors
# T2 sequence (Q04759 whole entry): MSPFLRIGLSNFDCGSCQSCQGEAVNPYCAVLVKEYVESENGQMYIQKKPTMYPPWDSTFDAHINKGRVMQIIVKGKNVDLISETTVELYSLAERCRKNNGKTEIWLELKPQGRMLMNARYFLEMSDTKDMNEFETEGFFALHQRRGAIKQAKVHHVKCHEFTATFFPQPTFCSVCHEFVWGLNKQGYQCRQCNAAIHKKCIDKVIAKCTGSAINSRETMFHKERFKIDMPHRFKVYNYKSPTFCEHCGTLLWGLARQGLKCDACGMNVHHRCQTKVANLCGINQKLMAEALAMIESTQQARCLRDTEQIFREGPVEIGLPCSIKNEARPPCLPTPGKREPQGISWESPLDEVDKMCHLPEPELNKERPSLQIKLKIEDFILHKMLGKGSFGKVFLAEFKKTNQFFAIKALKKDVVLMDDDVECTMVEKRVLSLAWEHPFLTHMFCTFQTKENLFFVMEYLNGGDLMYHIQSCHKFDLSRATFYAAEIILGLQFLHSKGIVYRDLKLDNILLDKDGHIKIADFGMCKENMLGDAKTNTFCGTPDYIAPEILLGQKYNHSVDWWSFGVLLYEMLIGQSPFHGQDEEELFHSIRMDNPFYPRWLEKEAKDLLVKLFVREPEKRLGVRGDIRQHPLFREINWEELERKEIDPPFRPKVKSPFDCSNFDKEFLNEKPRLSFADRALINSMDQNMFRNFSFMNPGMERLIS
# [4] = tested on: 3-nitrotyrosine proteins; assay: 3NO2-tyrosine protein derivative formation by immunoblot in CD4+ T cells; type: cell-based, human; conditions: CD4+ T cells from a healthy donor, increasing ONOO− then PMA
# Description: as §1, §2
# Experiments were conducted during development of embodiments of the present invention to confirm the effect of ONOO^− by measuring 3NO2-tyrosine protein derivative formation. CD4+ T cells from a healthy donor were treated with increasing ONOO— concentrations then stimulated with PMA. […]
# [5] = tested on: ERK; assay: PMA-stimulated ERK phosphorylation by immunoblot in CD4+ T cells; type: cell-based, human; conditions: CD4+ T cells from healthy controls, increasing ONOO− then PMA
# Description: as §1, §2
# This agrees with our previous results showing that PKCδ T505 phosphorylation is upstream of ERK (Gorelik, 2007; herein incorporated by reference in its entirety) and its impairment decreases ERK pathway signaling.
# [6] = biological target: T1, PKCδ; assay: PKCδ nitration: anti-nitrotyrosine immunoprecipitation and immunoblot of CD4+ T cell lysates; type: cell-based; conditions: control T cells treated with ONOO−
# Description: Immunoprecipitations were performed according to the manufacturer's instructions. Lysates from normal or lupus T cells were incubated with the agarose-conjugated anti-nitrotyrosine antibody overnight at 4° C. Following centrifugation an aliquot of the supernatant (containing non-nitrated proteins) and the beads were resuspended in Laemmli sample buffer and boiled for 5 min. Proteins from each fraction were then analyzed in parallel by SDS-PAGE and immunoblot analysis.
# Experiments were conducted during development of embodiments of the present invention to determine whether PKCδ is inactivated in T cells from patients with active lupus through nitration, similar to ONOO treated T cells. CD4+ T cells from 6 lupus patients with active disease (SLEDAI≧4) were stimulated with PMA and nitrated proteins immunoprecipitated from the lysates with anti-3NO2-Tyr antibodies. […] Total and T505 phosphorylated PKCδ content were then compared by immunoblotting.
# Nitrated and non-nitrated PKCδ were analyzed as the total PKCδ content in the precipitate and supernatant respectively. The levels of total PKCδ (supernatant+immunoprecipitate) were similar in untreated or ONOO^− treated T cells from control donors and lupus patients (FIGS. 5 A and B). […]
# [7] = tested on: ERK; assay: ERK phosphorylation in CD3+ splenic T cells of dnPKCδ/CD2-rtTA mice receiving dox; type: in vivo, mouse; conditions: dox in drinking water two weeks, relative to sucrose controls
# Description: (§3) Double transgenic mice were generated and maintained in a specific pathogen-free environment. All protocols were approved by the University of Michigan Committee on the Use and Care of Animals (UCUCA). Pups were weaned at 20 days of age and genotyped for the presence of both genes by PCR. Transgene expression was induced by giving 2 mg/ml of dox in the drinking water and supplemented with 5% of sucrose. Double transgenic control animals were given 5% sucrose alone. All the double transgenic mice were developmentally normal. Protein and blood in mouse urine was measured using Chemstrip 6 dipsticks (Roche, Madison, Wis.).
# 20 μg of protein was diluted in Laemmli loading buffer and denatured by boiling for 5 min followed by electrophoresis in 10-12% SDS-polyacrylamide gels. The fractionated proteins were then electrophoretically transferred to nitrocellulose membranes (Schleicher and Schuell, Keene, N.H.) and stained with Ponceau S (Sigma) to verify equal loading. Membranes were blocked for 1 h in Tris-buffered saline (TBS) containing 0.1% Tween (Sigma) and 5% nonfat dry milk (Bio-Rad). […] For quantitative studies, the bands on X-ray films were scanned and analyzed with ImageQuant 5.2 software (Amersham). […]
# [8] = tested on: Dnmt1; assay: Dnmt1 mRNA by real time RT-PCR in spleens of double transgenic mice given dox; type: in vivo, mouse; conditions: dox plus sucrose 2 weeks, spleen RNA
# Description: as §3
# (§4) 150 ng of RNA was converted to cDNA and amplified in one step using a Quanti-Tect SYBR Green RT-PCR kit (Qiagen). CD70 transcripts were quantitated by real-time RT-PCR using a Rotor-Gene 3000 (Corbett Research, Sydney, Australia) and previously published protocols (Gorelik, 2007; herein incorporated by reference in its entirety). The amplification conditions were: 30 min at 50° C., 15 min at 95° C., 40 cycles of 15s at 94° C., 20s at 56° C. and 30s at 72° C. followed by a final extension at 72° for 5 min. Transcript expression levels were normalized to GAPDH. […]
# Double transgenic mice were given dox plus sucrose or sucrose alone for 2 weeks. The mice were then sacrificed, RNA isolated from their spleens, then Dnmt1 mRNA levels were measured by real time RT-PCR. […]
# [9] = tested on: CD70; assay: CD70 mRNA in CD3+ T cells of dnPKCδ/CD2-rtTA mice with and without dox; type: in vivo, mouse; conditions: dox 2 weeks, relative to controls
# Description: as §3, §4
# [10] = tested on: dnPKCδ/CD2rtTA mice; assay: Serum IgG anti-dsDNA antibodies by ELISA in double transgenic mice given dox; type: in vivo, mouse; conditions: dox in drinking water, serially over time, versus sucrose controls
# Description: Serum anti-dsDNA IgG antibodies were measured by ELISA. Microtiter plates (Costar, Corning, N.Y.) were coated overnight at 4° C. with 10 μg plasmid dsDNA, then 5 μL of mouse sera were added to each well in 100 μl of buffer and incubated overnight at 4° C. Bound anti-dsDNA antibody was detected by chemiluminescence using HRP-goat anti-mouse IgG (Bethyl Lab Inc) at 450 nm in a spectrophotometer equipped with Softmax Pro software (Molecular Devices, Sunnyvale, Calif.). Murine monoclonal anti-dsDNA antibody (Chemicon) was used for the standard curve.
# Experiments were conducted during the development of embodiments of the present invention to determine if the double transgenic develop anti-dsDNA antibodies when given dox. The double transgenic mice were given sucrose or sucrose plus dox in their drinking water, and IgG anti-dsDNA antibodies were measured serially over time by ELISA.
# [11] = tested on: dnPKCδ/CD2rtTA mice; assay: Kidney histopathology in double transgenic dnPKCδ/CD2rtTA mice given Doxy; type: in vivo, mouse; conditions: double transgenic dnPKCδ/CD2rtTA mice pretreated with Doxy
# Description: Double transgenic dnPKCδ/CD2rtTA mice were given 4 mg/ml dox/5% sucrose in their drinking water for 20 wks. Double transgenic animals treated with 5% sucrose were used as controls. At indicated times, their kidneys and lungs were removed. Kidneys were divided in two, one half embedded in O.C.T. (Thermo Fisher) and frozen in liquid nitrogen while the other half and the lung were fixed in 10% formalin, paraffin embedded and stained with hematoxylin and eosin. Five micron sections were cut from the frozen tissue and fixed for 10 minutes in ice cold acetone. 10% horse serum/PBS was used to block non-specific sites and the sections were stained with a 1:50 dilution of biotin-Goat anti-mouse IgG (Fc specific) antibody (US Biologicals)/FITC-Streptavidin (BD Pharmingen) to detect IgG depositions.
# Immunohistochemical staining noted IgG deposition along capillary walls and in the mesangial region of glomeruli from transgenic animals pretreated with Doxy (FIG. 11). It was also observed perivascular infiltration of leukocytes in glomeruli (FIG. 12), lungs (FIG. 13) and liver of transgenic animals pretreated with Doxy.
# [12] = PMA stimulation, untreated (0 μM ONOO−) CD4+ T cells
smiles,measurement,setting,value
"O=NOO [ONOO^−, peroxynitrite]",PKCδ T505 phosphorylation,"[1]; CD4+ T cells from healthy subjects, increasing ONOO− (20-80 μM, 15 min) then PMA",concentration dependent decrease
same,PKCδ Y311 phosphorylation,"[1]; PMA stimulated CD4+ T cells, increasing ONOO−",concentration-dependent increase
same,PKC α activation loop phosphorylation,[2],not appreciably affected
same,PKC θ activation loop phosphorylation,[3],not appreciably affected
same,3-nitrotyrosine derivative formation,[4],concentration-dependent increase
same,PMA-stimulated ERK phosphorylation,[5],declines
same,nitrated PKCδ fraction T505 phosphorylated after PMA stimulation,[6],6%
same,PKCδ nitrated,[6]; PMA stimulated,74%
CCCCCCCCCCCCCC(=O)O[C@@H]1[C@@H](C)[C@@]2(O)[C@@H](C=C(CO)C[C@]3(O)C(=O)C(C)=C[C@@H]23)[C@@H]2C(C)(C)[C@]12OC(C)=O [PMA],PKCδ T505 phosphorylation,[1]; [12],substantial increase
same,PKCδ Y311 phosphorylation,[1]; [12],no appreciable effect
"C[C@H]1c2cccc(O)c2C(O)=C2C(=O)[C@]3(O)C(O)=C(C(N)=O)C(=O)[C@@H](N(C)C)[C@@H]3[C@@H](O)[C@@H]21 [dox, doxycycline]",ERK phosphorylation following PMA stimulation,[7],Reduced
same,decrease in Dnmt1 transcripts,[8],approximately 45%
same,CD70 mRNA expression,[9],significantly increased
same,IgG anti-dsDNA antibodies,[10],significantly higher levels
same,kidney histology,[11],evidence of glomerulonephritis
